# Laboratory results published in patent US10800791B2, “Triazole ACC inhibitors and uses thereof” (Gilead Apollo, LLC, priority 2015, dated 2020).
# Where two headings read alike, the source gives them in different places.
# Experiments:
# [1] = test system: Botrtyis cinerea (Bc); test: Growth inhibition assay of fungal pathogens, Bc; type: cell-based; settings: 48 h
# In short: (§1)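 Pathogen growth in 17% V8 broth is measured by OD600 at 24 and 48 hours, after blank subtraction, in the presence of compound at 50, 10 and 2 ppm or 2, 0.4 and 0.08 ppm. Inhibition in percent comes from 48-hour readings against the DMSO control.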
# [2] = test system: Diplodia maydis (Dm); test: Growth inhibition assay of fungal pathogens, Dm; type: cell-based; settings: Stenocarpella maydis, 48 h
# In short: as §1
# [3] = test system: C. albicans; test: Antifungal Activity Assay (broth microtiter MIC), C. albicans; type: cell-based, Candida albicans; settings: Candida albicans, ATCC90028, 48 h
# In short: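 Endpoint: lowest concentration visibly inhibiting growth relative to control after 48 h. Inoculum of 2.5×10^3 CFU/mL final in RPMI 1640+MOPS, prepared from overnight 35° C agar cultures; test compounds diluted in water to 128 μg/mL before plating.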
# [4] = Botrtyis cinerea, growth inhibition at 48 hours vs 2% DMSO control, read-out: Concentration at 90% Inhibition Bc
# [5] = Botrtyis cinerea, growth inhibition vs 2% DMSO control at 48 hours, read-out: Concentration at 90% Inhibition Bc
# [6] = Diplodia maydis, growth inhibition at 48 hours vs 2% DMSO control, read-out: Concentration at 90% Inhibition Dm
# [7] = Diplodia maydis, growth inhibition vs 2% DMSO control at 48 hours, read-out: Concentration at 90% Inhibition Dm
# [8] = Table 3a, ATCC 90028, 3 replicates, MIC recorded at 48 h, read-out: MIC, C. albicans ATCC 90028
# [9] = Table 3b (additional results), ATCC 90028, 3 replicates, MIC recorded at 48 h, read-out: MIC, C. albicans ATCC 90028
# [10] = read-out: Concentration at 90% Inhibition Bc, Botrtyis cinerea, growth inhibition at 48 hours vs 2% DMSO control
# [11] = read-out: Concentration at 90% Inhibition Bc, Botrtyis cinerea, growth inhibition vs 2% DMSO control at 48 hours
# [12] = read-out: Concentration at 90% Inhibition Dm, Diplodia maydis, growth inhibition at 48 hours vs 2% DMSO control
# [13] = read-out: Concentration at 90% Inhibition Dm, Diplodia maydis, growth inhibition vs 2% DMSO control at 48 hours
# [14] = read-out: MIC, C. albicans ATCC 90028, Table 3a, 3 replicates, MIC recorded at 48 h
# [15] = read-out: MIC, C. albicans ATCC 90028, Table 3b (additional results), 3 replicates, MIC recorded at 48 h
SMILES,"IC90 [1, 4]","IC90 [1, 5]","IC90 [2, 6]","IC90 [2, 7]","MIC [3, 8]","MIC [3, 9]","IC90 [1, 10]","IC90 [1, 11]","IC90 [2, 12]","IC90 [2, 13]","MIC [3, 14]","MIC [3, 15]"
"COc1ccc(F)cc1[C@H](Cn1c(=O)n(C(C)(C)C(=O)NCC(C)C)c(=O)c2c(C)c(-n3nccn3)sc21)OC1CCOCC1 [Compound I-29, (R)-2-(1-(2-(5-fluoro-2-methoxyphenyl)-2-((tetrahydro-2H-pyran-4-yl)oxy)ethyl)-5-methyl-2,4-dioxo-6-(2H-1,2,3-triazol-2-yl)-1,4-dihydro-thieno[2,3-d]pyrimidin-3(2H)-yl)-N-isobutyl-2-methylpropanamide]",0.4 µg/mL,0.4 µg/mL,0.4 µg/mL,0.4 µg/mL,0.25 to 1 µg/mL,0.06 to 0.249 µg/mL,,,,,,
"COCCO[C@@H](Cn1c(=O)n(CC(=O)N2CCCC2)c(=O)c2c(C)c(-n3nccn3)sc21)c1cc(F)ccc1OC [Compound I-79, (R)-1-(2-(5-fluoro-2-methoxyphenyl)-2-(2-methoxy-ethoxy)ethyl)-5-methyl-3-(2-oxo-2-(pyrrolidin-1-yl)ethyl)-6-(2H-1,2,3-tria-zol-2-yl)thieno[2,3-d]pyrimidine-2,4(1H,3H)-dione]",2 µg/mL,2 µg/mL,2 µg/mL,2 µg/mL,2.1 to 4 µg/mL,> 4.01 µg/mL,,,,,,
"COCCO[C@@H](Cn1c(=O)n([C@H](C)C(=O)N2CCCC2)c(=O)c2c(C)c(-n3nccn3)sc21)c1cc(F)ccc1OC [Compound I-65, 1-((R)-2-(5-fluoro-2-methoxyphenyl)-2-(2-methoxy-ethoxy)ethyl)-5-methyl-3-((R)-1-oxo-1-(pyrrolidin-1-yl)propan-2-yl)-6-(2H-1,2,3-triazol-2-yl)thieno[2,3-d]pyrimidine-2,4(1H,3H)-dione]",2 µg/mL,2 µg/mL,10 µg/mL,> 50 µg/mL,2.1 to 4 µg/mL,2.01 to 4 µg/mL,,,,,,
"C=CCN(C)C(=O)C(C)(C)n1c(=O)c2c(C)c(-n3nccn3)sc2n(C[C@H](OC2CCOCC2)c2cc(F)ccc2OC)c1=O [Compound I-71, (R)—N-allyl-2-(1-(2-(5-fluoro-2-methoxyphenyl)-2-((tetrahydro-2H-pyran-4-yl)oxy)ethyl)-5-methyl-2,4-dioxo-6-(2H-1,2,3-triazol-2-yl)-1,4-dihydrothieno[2,3-d]pyrimidin-3(2H)-yl)-N,2-dimethylpropanamide]",0.4 µg/mL,0.4 µg/mL,0.4 µg/mL,0.4 µg/mL,0.25 to 1 µg/mL,0.25 to 1 µg/mL,,,,,,
"CNC(=O)C(C)(C)n1c(=O)c2c(C)c(-n3nccn3)sc2n(C[C@H](OC(C)C)c2cc(F)ccc2OC)c1=O [Compound I-50, (R)-2-(1-(2-(5-fluoro-2-methoxyphenyl)-2-isopropoxy-ethyl)-5-methyl-2,4-dioxo-6-(2H-1,2,3-triazol-2-yl)-1,4-dihydrothieno[2,3-d]pyrimidin-3(2H)-yl)-N,2-dimethylpropanamide]",,,,,,,2 µg/mL,2 µg/mL,10 µg/mL,> 50 µg/mL,1.1 to 2 µg/mL,1.01 to 2 µg/mL
"COc1ccc(F)cc1[C@H](Cn1c(=O)n(C(C)(C)C(=O)NC(C)C)c(=O)c2c(C)c(-n3nccn3)sc21)OC1CCC(=O)CC1 [Compound I-32, (R)-2-(1-(2-(5-fluoro-2-methoxyphenyl)-2-((4-oxocyclo-hexyl)oxy)ethyl)-5-methyl-2,4-dioxo-6-(2H-1,2,3-triazol-2-yl)-1,4-dihydro-thieno[2,3-d]pyrimidin-3(2H)-yl)-N-isopropyl-2-methylpropanamide]",,,,,,,0.08 µg/mL,0.08 µg/mL,0.08 µg/mL,0.08 µg/mL,0.06 to 0.24 µg/mL,0.06 to 0.249 µg/mL
"COCCCO[C@@H](Cn1c(=O)n(C(C)(C)C(=O)N2CCCC2)c(=O)c2c(C)c(-n3nccn3)sc21)c1cc(F)ccc1OC [Compound I-68, (R)-1-(2-(5-fluoro-2-methoxyphenyl)-2-(3-methoxy-propoxy)ethyl)-5-methyl-3-(2-methyl-1-oxo-1-(pyrrolidin-1-yl)propan-2-yl)-6-(2H-1,2,3-triazol-2-yl)thieno[2,3-d]pyrimidine-2,4(1H,3H)-dione]",2 µg/mL,2 µg/mL,2 µg/mL,2 µg/mL,,2.01 to 4 µg/mL,,,,,,
